We go through one molecule from patent US20120053168A1, “FUSED BENZOAZEPINES AS NEURONAL NICOTINIC ACETYLCHOLINE RECEPTOR LIGANDS” (Targacept, Inc., priority 2009, published 2012).

pEC50, pKi: −log10 of the molar value.

One test addresses T1, Rat α4β2 nAChR subtype (Rattus norvegicus, UniProt P09483+P12390).
T1 construct: from tissue; host or cells: rat cerebral cortex membranes (female Sprague-Dawley)
Briefly: [3H]nicotine radioligand binding, membranes from rat cortex. As for the experimental part: Preparation of membranes from rat cortex: Rats (female, Sprague-Dawley), weighing 150-250 g, were maintained on a 12 h light/dark cycle and were allowed free access to water and food supplied by PMI Nutrition International, Inc. Animals were anesthetized with 70% CO2, and then decapitated. Brains were removed and placed on an ice-cold platform. The cerebral cortex was removed and placed in 20 volumes (weight:volume) of ice-cold preparative buffer (137 mM NaCl, 10.7 mM KCl, 5.8 mM KH2PO4, 8 mM Na2HPO4, 20 mM HEPES (free acid), 5 mM iodoacetamide, 1.6 mM EDTA, pH 7.4); PMSF, dissolved in methanol to a final concentration of 100 μM, was added and the suspension was homogenized by Polytron. The homogenate was centrifuged at 18,000×g for 20 min at 4° C. and the resulting pellet was re-suspended in 20 volumes of ice-cold water. After 60 min incubation on ice, a new pellet was collected by centrifugation at 18,000×g for 20 min at 4° C. The final pellet was re-suspended in 10 volumes of buffer and stored at ˜20° C.
On the day of the assay, the frozen membranes were thawed and spun at 48,000×g for 20 min. The supernatant was decanted and discarded. The pellet was resuspended in Dulbecco's phosphate buffered saline (PBS, Life Technologies) pH 7.4 and homogenized with the Polytron for 6 seconds. Protein concentrations were determined using a Pierce BCA Protein Assay Kit, with bovine serum albumin as the standard (Pierce Chemical Company, Rockford, Ill.).
Assay: Membrane preparations (approximately 50 μg for human and 200-300 μg protein for rat α4β2) were incubated in PBS (50 μL and 100 μL respectively) in the presence of competitor compound (0.01 nM to 100 μM) and 5 nM [^3H]nicotine for 2-3 hours on ice. Incubation was terminated by rapid filtration on a multi-manifold tissue harvester (Brandel, Gaithersburg, Md.) using GF/B filters presoaked in 0.33% polyethyleneimine (w/v) to reduce non-specific binding. Tissue was rinsed 3 times in PBS, pH 7.4. Scintillation fluid was added to filters containing the washed tissue and allowed to equilibrate. Filters were then counted to determine radioactivity bound to the membranes by liquid scintillation counting (2200CA Tri-Carb LSC, Packard Instruments, 50% efficiency or Wallac Trilux 1450 MicroBeta, 40% efficiency, Perkin Elmer).
Data were expressed as disintegrations per minute (DPMs). Within each assay, each point had 2-3 replicates. The replicates for each point were averaged and plotted against the log of the drug concentration. IC50, which is the concentration of the compound that produces 50% inhibition of binding, was determined by least squares non-linear regression. Ki values were calculated using the Cheng-Prussof equation (1973): […]
where N is the concentration of [^3H]nicotine and Kd is the affinity of nicotine (3 nM, determined in a separate experiment).

The target of test [1] is T2, human muscle nAChR subtype (Homo sapiens, UniProt P02708+P07510+Q07001).
T2 construct: endogenous in cells; host or cells: TE671/RD human rhabdomyosarcoma cells
T2 sequence (P02708 21-457): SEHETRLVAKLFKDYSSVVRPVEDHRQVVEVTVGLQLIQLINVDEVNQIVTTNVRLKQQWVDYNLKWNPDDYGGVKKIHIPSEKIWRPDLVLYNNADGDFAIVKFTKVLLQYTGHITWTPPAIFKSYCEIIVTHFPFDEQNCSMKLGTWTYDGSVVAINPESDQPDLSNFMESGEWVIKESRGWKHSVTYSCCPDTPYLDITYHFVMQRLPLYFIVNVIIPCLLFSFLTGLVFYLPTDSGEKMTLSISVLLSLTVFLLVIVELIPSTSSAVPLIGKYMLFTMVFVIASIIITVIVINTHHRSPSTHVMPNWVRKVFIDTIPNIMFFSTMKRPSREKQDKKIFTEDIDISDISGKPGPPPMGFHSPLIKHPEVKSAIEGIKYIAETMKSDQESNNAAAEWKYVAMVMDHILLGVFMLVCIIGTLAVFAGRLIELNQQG
T2 sequence (P07510 23-517): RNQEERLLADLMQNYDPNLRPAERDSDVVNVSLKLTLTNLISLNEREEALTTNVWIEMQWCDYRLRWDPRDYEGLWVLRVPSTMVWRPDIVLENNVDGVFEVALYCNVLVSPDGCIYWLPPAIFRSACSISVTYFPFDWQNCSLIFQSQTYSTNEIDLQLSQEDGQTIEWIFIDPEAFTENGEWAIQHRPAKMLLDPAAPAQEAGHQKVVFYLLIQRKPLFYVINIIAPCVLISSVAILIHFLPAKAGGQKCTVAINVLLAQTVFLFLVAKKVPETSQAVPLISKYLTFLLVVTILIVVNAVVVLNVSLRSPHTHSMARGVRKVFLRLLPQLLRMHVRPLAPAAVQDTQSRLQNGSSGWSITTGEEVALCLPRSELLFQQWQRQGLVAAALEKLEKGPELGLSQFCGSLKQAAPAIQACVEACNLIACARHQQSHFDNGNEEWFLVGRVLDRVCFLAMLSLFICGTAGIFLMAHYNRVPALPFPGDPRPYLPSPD
T2 sequence (Q07001 22-517): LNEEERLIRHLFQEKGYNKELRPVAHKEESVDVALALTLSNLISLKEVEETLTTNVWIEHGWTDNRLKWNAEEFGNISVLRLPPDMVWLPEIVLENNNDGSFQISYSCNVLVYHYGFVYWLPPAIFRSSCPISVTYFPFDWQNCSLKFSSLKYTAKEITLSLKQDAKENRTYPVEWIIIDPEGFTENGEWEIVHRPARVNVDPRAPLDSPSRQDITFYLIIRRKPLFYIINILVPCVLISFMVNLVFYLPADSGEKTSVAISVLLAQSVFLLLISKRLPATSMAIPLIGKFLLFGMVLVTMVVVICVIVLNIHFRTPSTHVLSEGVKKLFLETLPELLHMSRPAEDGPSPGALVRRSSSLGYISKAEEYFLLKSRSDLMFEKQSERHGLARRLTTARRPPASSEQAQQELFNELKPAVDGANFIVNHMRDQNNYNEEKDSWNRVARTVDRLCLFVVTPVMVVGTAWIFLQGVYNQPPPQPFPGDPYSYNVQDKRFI
T2 sequence (P11230 24-501 partner): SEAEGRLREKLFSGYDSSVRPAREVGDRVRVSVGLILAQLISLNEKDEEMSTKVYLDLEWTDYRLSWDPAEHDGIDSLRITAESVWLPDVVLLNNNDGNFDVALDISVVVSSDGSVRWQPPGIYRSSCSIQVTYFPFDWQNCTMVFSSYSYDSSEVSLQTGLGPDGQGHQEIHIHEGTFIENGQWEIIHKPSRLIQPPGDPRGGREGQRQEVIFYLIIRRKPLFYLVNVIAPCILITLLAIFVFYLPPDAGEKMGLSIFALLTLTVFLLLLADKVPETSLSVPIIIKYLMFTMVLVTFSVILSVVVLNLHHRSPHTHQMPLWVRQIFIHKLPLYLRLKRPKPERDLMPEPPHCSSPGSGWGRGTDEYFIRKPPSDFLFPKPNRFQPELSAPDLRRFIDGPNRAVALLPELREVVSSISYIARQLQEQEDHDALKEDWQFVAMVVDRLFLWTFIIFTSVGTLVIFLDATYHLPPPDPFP
The experiment in a line: 86Rb+ efflux in TE671/RD cells (human muscle nAChR subtype). It is filed as cell-based. An excerpt: Example 7: Interaction at the Human Muscle nAChR Subtype
Activation of muscle-type nAChRs was established on the human clonal line TE671/RD, which is derived from an embryonal rhabdomyosarcoma (Stratton et al., Carcinogen 10: 899 (1989)). These cells express receptors that have pharmacological (Lukas, J. Pharmacol. Exp. Ther. 251: 175 (1989)), electrophysiological (Oswald et al., Neurosci. Lett. 96: 207 (1989)), and molecular biological profiles (Luther et al., J. Neurosci. 9: 1082 (1989)) similar to the muscle-type nAChR.
TE671/RD cells were maintained in proliferative growth phase according to routine protocols (Bencherif et al., Mol. Cell. Neurosci. 2: 52 (1991) and Bencherif et al., J. Pharmacol. Exp. Ther. 257: 946 (1991)). […]
Nicotinic acetylcholine receptor (nAChR) function was assayed using ^86Rb^+efflux according to the method described by Lukas et al., Anal. Biochem. 175: 212 (1988). […] Scintillation fluid was added and released radioactivity was measured by liquid scintillation counting. […]
When appropriate, dose-response curves of test compound were determined. The maximal activation for individual compounds (Emax) was determined as a percentage of the maximal activation induced by L-nicotine. The compound concentration resulting in half maximal activation (EC50) of specific ion flux was also determined.

T1 sequence (P09483 31-630): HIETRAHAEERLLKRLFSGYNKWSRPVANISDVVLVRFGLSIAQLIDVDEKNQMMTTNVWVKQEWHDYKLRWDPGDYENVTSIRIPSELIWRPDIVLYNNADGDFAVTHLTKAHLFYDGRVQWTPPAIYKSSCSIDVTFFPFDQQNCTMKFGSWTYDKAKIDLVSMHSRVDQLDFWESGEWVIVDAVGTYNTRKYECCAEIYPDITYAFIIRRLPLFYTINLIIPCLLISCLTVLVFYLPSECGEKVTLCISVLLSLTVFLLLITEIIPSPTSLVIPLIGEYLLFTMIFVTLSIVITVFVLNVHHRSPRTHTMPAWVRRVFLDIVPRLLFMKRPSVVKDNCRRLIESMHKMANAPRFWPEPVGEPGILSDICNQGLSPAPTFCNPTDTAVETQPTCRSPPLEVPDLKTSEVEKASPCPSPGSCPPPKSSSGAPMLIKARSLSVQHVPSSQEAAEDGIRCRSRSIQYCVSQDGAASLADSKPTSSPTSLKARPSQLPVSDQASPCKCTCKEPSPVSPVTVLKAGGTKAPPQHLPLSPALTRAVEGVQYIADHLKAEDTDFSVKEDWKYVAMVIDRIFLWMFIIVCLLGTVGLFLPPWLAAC
T1 sequence (P12390 25-500): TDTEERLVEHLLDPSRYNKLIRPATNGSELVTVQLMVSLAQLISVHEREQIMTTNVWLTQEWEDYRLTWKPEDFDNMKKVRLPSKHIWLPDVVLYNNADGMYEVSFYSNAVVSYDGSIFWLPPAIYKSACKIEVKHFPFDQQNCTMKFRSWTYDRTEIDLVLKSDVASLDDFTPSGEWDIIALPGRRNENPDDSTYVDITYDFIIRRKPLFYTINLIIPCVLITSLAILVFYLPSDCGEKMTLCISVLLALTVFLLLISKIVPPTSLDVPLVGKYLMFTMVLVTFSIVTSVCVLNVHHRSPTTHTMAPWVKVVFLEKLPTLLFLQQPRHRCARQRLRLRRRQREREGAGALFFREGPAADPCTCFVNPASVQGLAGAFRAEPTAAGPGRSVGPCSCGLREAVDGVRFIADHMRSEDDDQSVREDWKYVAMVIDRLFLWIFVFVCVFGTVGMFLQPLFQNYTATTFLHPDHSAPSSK

By pKi is commonly meant the negative decadic logarithm of the Ki, by convention in mol/L. A word on the pEC50: it is the EC50 on a negative log10 scale, so that one unit is a factor of ten. A high value points to a small EC50. As usually defined, the Emax is the maximal effect, on the per cent scale that the assay sets. `c1cnc2cc3c(cc2n1)CCNCC3` [Compound A, 7,8,9,10-tetrahydro-6H-azepino[4,5-g]quinoxaline] had a pKi at Rat α4β2 nAChR subtype of 7.77. The pEC50 in test [1] (86Rb+ efflux) is 4.12. In test [1] (percentage of maximal activation induced by L-nicotine), this molecule yielded an Emax of 23%.
